Test [1] has as its target T1, SARS-CoV-2 PLpro (nsp3 1564–1878) (Severe acute respiratory syndrome coronavirus 2, UniProt P0DTD1). The test is described as follows: biochemical. The arrangement: FRET-quenched peptide (Pro3) cleavage by PLpro, 10 min pre-incubation, slope over 20 min, normalised to no-compound control. The conditions noted are these: low concentration screen, read-out: % of control remaining.

For test [2], the target named is T1, SARS-CoV-2 PLpro (nsp3 1564–1878). Briefly: biochemical. The arrangement: FRET-quenched peptide (Pro3) cleavage by PLpro, 10 min pre-incubation, slope over 20 min, normalised to no-compound control. As to conditions: high concentration screen, read-out: % of control remaining.

Structures are written as SMILES. Counter-ions that a name gives are not always drawn. Like-named read-outs stand apart in the source and are kept apart here.

For `O=C(NCC1CCCCN1)c1cc(OCC(F)(F)F)ccc1OCC(F)(F)F` (stereo not shown) [Flecainide acetate], the remaining activity at 1.25 µM in test [1] (Well no.=709) came to 98.5%; in test [1] (Well no.=1649) it was 101%. For the same molecule, the remaining activity at 3.75 µM turned out to be 98.3% in test [2] (Well no.=709) and 101% in test [2] (Well no.=1649).
With `CN1CCN(c2c(F)cc3c(=O)c(C(=O)O)cn(CCF)c3c2F)CC1` [Fleroxacin], the remaining activity at 1.25 µM in test [1] (Well no.=2120) was determined as 92.9%. Further, in test [2] (Well no.=2120), the remaining activity at 3.75 µM turned out to be 96.3%.
Regarding `O=c1[nH]c(=O)n([C@H]2C[C@H](O)[C@@H](CO)O2)cc1F` [Floxuridine], the remaining activity at 1.25 µM in test [1] (Well no.=2124) came to 98.1%; in test [1] (Well no.=8010) it was 88%. Also, the remaining activity at 3.75 µM in test [2] (Well no.=2124) amounted to 102%; in test [2] (Well no.=8010), 86.4%.
Take `c1ccc(-c2cnc(Nc3ccc(OCCN4CCCC4)cc3)s2)cc1` [Flt-3 Inhibitor III]: in test [1] (Well no.=2421), the remaining activity at 1.25 µM worked out at 99.3%. Moreover, the remaining activity at 3.75 µM in test [2] (Well no.=2421) is 98.8%.
Take `O=C(c1cc2cc(O)ccc2[nH]1)c1cc2cc(O)ccc2[nH]1` [Flt-3 Inhibitor II]: the remaining activity at 1.25 µM in test [1] (Well no.=2409) stood at 109%. Moreover, the remaining activity at 3.75 µM in test [2] (Well no.=2409) came to 110%.
For the molecule `COc1ccc(C(=O)Nc2sc3c(c2C(N)=O)CCCC3)cc1OC` [Flt-3 Inhibitor], the remaining activity at 1.25 µM in test [1] (Well no.=2407) was 105%. For the same molecule, the remaining activity at 3.75 µM in test [2] (Well no.=2407) stood at 105%.
`COC(=O)Nc1nc2cc(C(=O)c3ccc(F)cc3)ccc2[nH]1` [Flubendazole]: the remaining activity at 1.25 µM in test [1] (Well no.=2128) was 101%. Moreover, in test [2] (Well no.=2128), the remaining activity at 3.75 µM came out at 103%.
For `OC(Cn1cncn1)(Cn1cncn1)c1ccc(F)cc1F` [Fluconazole], the remaining activity at 1.25 µM in test [1] (Well no.=2132) turned out to be 99.9%. The remaining activity at 3.75 µM in test [2] (Well no.=2132) stood at 100%.
As to `Nc1nc(=O)[nH]cc1F` [Flucytosine (Ancobon)], the remaining activity at 1.25 µM in test [1] (Well no.=5335) is 94.7%. For the same molecule, the remaining activity at 3.75 µM in test [2] (Well no.=5335) was determined as 101%.
For `Nc1nc(F)nc2c1ncn2[C@@H]1O[C@H](CO)[C@@H](O)[C@@H]1O` [Fludarabine (Fludara)], in test [1] (Well no.=5249), the remaining activity at 1.25 µM was determined as 98.3%. In addition, in test [2] (Well no.=5249), the remaining activity at 3.75 µM was 99.9%.
As to `Nc1nc(F)nc2c1ncn2[C@@H]1O[C@H](COP(=O)(O)O)[C@@H](O)[C@@H]1O` [Fludarabine (phosphate)], in test [1] (Well no.=8046), the remaining activity at 1.25 µM is 95.8%. Also, the remaining activity at 3.75 µM in test [2] (Well no.=8046) came to 98%.
For `Nc1nc(F)nc2c1ncn2[C@@H]1O[C@H](CO)[C@@H](O)[C@@H]1O` [Fludarabine], the remaining activity at 1.25 µM in test [1] (Well no.=7962) came to 89.2%. The remaining activity at 3.75 µM in test [2] (Well no.=7962) was 88.2%.
Turning to `CC(=O)OCC(=O)[C@@]1(O)CC[C@H]2[C@@H]3CCC4=CC(=O)CC[C@]4(C)[C@@]3(F)[C@@H](O)C[C@@]21C` [Fludrocortisone acetate], in test [1] (Well no.=5827), the remaining activity at 1.25 µM worked out at 103%. Also, the remaining activity at 3.75 µM in test [2] (Well no.=5827) amounted to 104%.
In the case of `O=C(O)c1ccccc1Nc1cccc(C(F)(F)F)c1` [Flufenamic acid], in test [1] (Well no.=1639), the remaining activity at 1.25 µM amounted to 104%. Further, in test [2] (Well no.=1639), the remaining activity at 3.75 µM was 105%.
With `CCOC(=O)c1ncn2c1CN(C)C(=O)c1cc(F)ccc1-2` [Flumazenil], the values for the remaining activity at 1.25 µM in test [1] (Well no.=517) and in test [1] (Well no.=1575) were 104% and 103%, respectively. Besides, the results for the remaining activity at 3.75 µM in test [2] (Well no.=517) and in test [2] (Well no.=1575) were 106% and 102%, respectively.
On to `CC1CCc2cc(F)cc3c(=O)c(C(=O)O)cn1c23` (stereo not shown) [Flumequine], for which the remaining activity at 1.25 µM in test [1] (Well no.=5032) was 96.8%. In addition, in test [2] (Well no.=5032), the remaining activity at 3.75 µM was 97.6%.
In the case of `Cc1c(Nc2ncccc2C(=O)O)cccc1C(F)(F)F` [Flunixin meglumin], the remaining activity at 1.25 µM in test [1] (Well no.=5094) was 103%. The remaining activity at 3.75 µM in test [2] (Well no.=5094) is 108%.
Turning to `CC1(C)O[C@@H]2C[C@H]3[C@@H]4C[C@H](F)C5=CC(=O)C=C[C@]5(C)[C@@]4(F)[C@@H](O)C[C@]3(C)[C@]2(C(=O)CO)O1` [Fluocinolone (Acetonide)], the remaining activity at 1.25 µM in test [1] (Well no.=6667) came out at 108%. Moreover, the remaining activity at 3.75 µM in test [2] (Well no.=6667) came out at 111%.
On to `CC1(C)O[C@@H]2C[C@H]3[C@@H]4C[C@H](F)C5=CC(=O)C=C[C@]5(C)[C@@]4(F)[C@@H](O)C[C@]3(C)[C@]2(C(=O)CO)O1` [Fluocinolone acetonide], for which the remaining activity at 1.25 µM in test [1] (Well no.=2126) amounted to 97.3%. Besides, the remaining activity at 3.75 µM in test [2] (Well no.=2126) stood at 98.4%.
On to `CC(=O)OCC(=O)[C@@]12OC(C)(C)O[C@@H]1C[C@H]1[C@@H]3C[C@H](F)C4=CC(=O)C=C[C@]4(C)[C@@]3(F)[C@@H](O)C[C@@]12C` [Fluocinonide], for which the remaining activity at 1.25 µM in test [1] (Well no.=6805) was determined as 98.5%. Also, the remaining activity at 3.75 µM in test [2] (Well no.=6805) is 99.9%.
Turning to `CNCCC(Oc1ccc(C(F)(F)F)cc1)c1ccccc1` (stereo not shown) [Fluoxetine hydrochloride], the remaining activity at 1.25 µM in test [1] (Well no.=761) came out at 95.3%. In addition, the remaining activity at 3.75 µM in test [2] (Well no.=761) was determined as 93.4%.
Take `CNCCC(Oc1ccc(C(F)(F)F)cc1)c1ccccc1` (stereo not shown) [Fluoxetine]: the remaining activity at 1.25 µM in test [1] (Well no.=2102) is 96.6%. Moreover, the remaining activity at 3.75 µM in test [2] (Well no.=2102) worked out at 98.8%.
Consider `CN1CCN(C2=Nc3cc(F)ccc3Cc3ccccc32)CC1` [Fluperlapine], for which the remaining activity at 1.25 µM in test [1] (Well no.=2100) is 101%. In test [2] (Well no.=2100), the remaining activity at 3.75 µM is 98.8%.
`CCOC(=O)Nc1ccc(NCc2ccc(F)cc2)nc1N` [Flupirtine maleate]: the remaining activity at 1.25 µM in test [1] (Well no.=711) was 95.7%. Moreover, the remaining activity at 3.75 µM in test [2] (Well no.=711) turned out to be 90.6%.
With `CC(C(=O)O)c1ccc(-c2ccccc2)c(F)c1` (stereo not shown) [Flurbiprofen], the remaining activity at 1.25 µM in test [1] (Well no.=2118) was 99.6%. Besides, the remaining activity at 3.75 µM in test [2] (Well no.=2118) was found to be 101%.
Consider `O=C1NCN(c2ccccc2)C12CCN(CCCC(c1ccc(F)cc1)c1ccc(F)cc1)CC2` [Fluspirilene], for which, in test [1] (Well no.=569), the remaining activity at 1.25 µM came to 98.4%. The remaining activity at 3.75 µM in test [2] (Well no.=569) stood at 97.3%; in test [2] (Well no.=1599) it was 98.9%.
Turning to `CC(C)C(=O)Nc1ccc([N+](=O)[O-])c(C(F)(F)F)c1` [Flutamide], the remaining activity at 1.25 µM in test [1] (Well no.=759) amounted to 90.8%; in test [1] (Well no.=2130), 93%. Moreover, the values for the remaining activity at 3.75 µM in test [2] (Well no.=759) and in test [2] (Well no.=2130) were 97.8% and 95%, respectively.
Turning to `CCC(=O)O[C@]1(C(=O)SCF)[C@H](C)C[C@H]2[C@@H]3C[C@H](F)C4=CC(=O)C=C[C@]4(C)[C@@]3(F)[C@@H](O)C[C@@]21C` [Fluticasone (propionate)], the remaining activity at 1.25 µM in test [1] (Well no.=7515) stood at 98.2%. In addition, the remaining activity at 3.75 µM in test [2] (Well no.=7515) amounted to 97.6%.
`CC(C)n1c(/C=C/[C@@H](O)C[C@@H](O)CC(=O)O)c(-c2ccc(F)cc2)c2ccccc21` [Fluvastatin sodium (Lescol)]: the remaining activity at 1.25 µM in test [1] (Well no.=4998) came out at 106%. Further, the remaining activity at 3.75 µM in test [2] (Well no.=4998) stood at 102%.

The record behind these values is article PMC8286840, “Identifying SARS-CoV-2 antiviral compounds by screening for small molecule inhibitors of Nsp3 papain-like protease” (Biochemical Journal, 2021).
